Measured values: patent publication US20050101595A1, “N-containing cycloalkyl-substituted amino-thiazole derivatives and pharmaceutical compositions for inhibiting cell proliferation and methods for their use” (PFIZER INC., priority 2003, published 2005)
Counter-ions that a name gives are not always drawn. Like-named read-outs stand apart in the source and are kept apart here.

How the values were obtained:
CDK2/Cyclin A = CDK2/Cyclin A (Homo sapiens, UniProt P24941); test: Inhibition of CDK2/Cyclin A Retinoblastoma Kinase Activity; format: biochemical; conditions: for Ki: apparent Ki, CDK2/proteolyzed cyclin A, Rb fragment substrate, 25 μM ATP
Method in brief: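 Radiometric filter-binding readout of phosphate transfer to an Rb substrate fragment by purified CDK2/truncated cyclin A at 10 or 19 nM. Run at pH 7.4 with 25 μM ATP, 30 °C, 60–75 min, linear rates; background without enzyme subtracted, Ki from competitive-inhibition models.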

HCT-116 cell line = test: Inhibition of cell growth, tetrazolium salt (MTT) assay; format: cell-based; conditions: for IC50: Homo sapiens, HCT-116, 120 h, MTT, three to five days, read-out: HCT-116 IC50; for HCT-116 % Inhibition at 0.25 μM: 0.25 μM compound
Method in brief: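 Growth inhibition by MTT reduction at 540 nm (0.2 mg/mL, 4 h at 37° C, formazan dissolved in DMSO), normalized to cells given only 0.5% v/v DMSO. HCT-116 cultures in McCoy's 5A were dosed 4 h post-plating and kept three to five days at 37° C, 5% CO2.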

[1] = target: human CDK4 and genetically truncated (1-264) cyclin D3 (Homo sapiens, UniProt P11802); test: Inhibition of CDK4/Cyclin D Retinoblastoma Kinase Activity; format: biochemical; conditions: for Ki: apparent Ki, CDK4/truncated cyclin D3, Rb fragment substrate, 25 μM ATP
Sequence of human CDK4 and genetically truncated (1-264) cyclin D3 (P11802 whole entry, the tested form may be a part): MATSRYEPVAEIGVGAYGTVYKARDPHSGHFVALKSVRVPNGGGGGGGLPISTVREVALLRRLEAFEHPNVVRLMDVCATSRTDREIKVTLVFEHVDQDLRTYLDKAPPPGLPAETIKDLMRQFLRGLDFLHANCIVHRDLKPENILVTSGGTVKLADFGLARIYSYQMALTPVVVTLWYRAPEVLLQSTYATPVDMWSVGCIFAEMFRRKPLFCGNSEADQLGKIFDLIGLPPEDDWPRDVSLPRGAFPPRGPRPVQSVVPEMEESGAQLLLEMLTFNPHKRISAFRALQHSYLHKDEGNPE
Sequence of human CDK4 and genetically truncated (1-264) cyclin D3 (P30281 1-264 partner): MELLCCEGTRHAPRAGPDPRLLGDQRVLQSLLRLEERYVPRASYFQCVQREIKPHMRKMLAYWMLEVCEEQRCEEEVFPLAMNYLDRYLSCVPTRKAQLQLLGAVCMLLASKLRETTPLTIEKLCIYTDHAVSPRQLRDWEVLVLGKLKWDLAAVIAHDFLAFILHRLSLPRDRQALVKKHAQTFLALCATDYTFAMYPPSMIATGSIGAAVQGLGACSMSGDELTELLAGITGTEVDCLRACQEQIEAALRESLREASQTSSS
Method in brief: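 Apparent Ki values come from competitive or competitive tight-binding inhibition fits of background-corrected 32P/33P incorporation into His-tagged Rb fragment (386-928), captured on nitrocellulose. Reaction: 5 nM insect-cell-expressed human CDK4 with cyclin D3 (1-264), 25 μM ATP, pH 7.4 HEPES, 2% DMSO, 30° C., 20 min, extended to 60 min for tight-binding inhibitors.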

Compound | CDK2 % Inhibition at 0.03 μM (CDK2/Cyclin A; at 0.03 μM) [%] | HCT-116 % Inhibition at 0.1 μM (HCT-116 cell line; HCT-116 cells, at 0.1 μM) [%] | HCT-116 5 Inhibition at 0.25 μM (HCT-116 cell line; HCT-116 cells) | CDK4 % Inhibition at 0.03 μM ([1]; at 0.03 μM) [%] | Ki (CDK2/Cyclin A) [nM] | IC50 (HCT-116 cell line; first HCT-116 column (c4)) [nM] | IC50 (HCT-116 cell line; second HCT-116 column (c5)) [nM] | Ki [1] [nM] | other results
Nc1nc(NC2CCN(C(=O)[C@H](Cc3ccccc3)NS(=O)(=O)c3cccc4ccccc34)CC2)sc1C(=O)c1c(F)cccc1F [Example R73] | 6 | 4 | 38 | 19 | – | – | – | – | –
C[C@@H]1CN(CCCS(=O)(=O)N2CCC(Nc3nc(N)c(C(=O)c4c(F)cccc4F)s3)CC2)C[C@H](C)N1 [Example K1, 1-(4-Amino-2-{1-[3-(3,5-cis-dimethylpiperazin-1-yl)-propane-1-sulfonyl]-piperidin-4-ylamino}-thiazol-5-yl)-1-(2,6-difluoro-phenyl)-methanone] | – | – | – | – | 7.8 | > 5000 | > 5000 | 2 | –
Nc1nc(NC2CCN(S(=O)(=O)/C=C/c3ccccc3)CC2)sc1C(=O)c1c(F)cccc1F [Example P26] | – | – | – | – | – | – | – | – | CDK2 % Inhibition at 0.03 μM (CDK2/Cyclin A; 0.03 μM compound, Table 3): 37%; HCT-116 % Inhibition at 0.1 μM (HCT-116 cell line; 0.1 μM compound, HCT-116, Table 3): 4%; HCT-116 % Inhibition at 0.25 μM (HCT-116 cell line; HCT-116, Table 3): 23%; CDK4 % Inhibition at 0.03 μM ([1]; 0.03 μM compound, Table 3): 39%
Nc1nc(NC2CCN(C(=O)CCC3CCCC3)CC2)sc1C(=O)c1c(F)cccc1F [Example R97] | 13 | 0 | 39 | 17 | – | – | – | – | –
Nc1nc(NC2CCN(C(=O)Nc3ccc(Cl)cc3)CC2)sc1C(=O)c1c(F)cccc1F [Example O20] | – | – | – | – | – | – | – | – | CDK2 % Inhibition At 0.03 μM (CDK2/Cyclin A; 0.03 μM compound, Table 2): 26%; HCT-116 % Inhibition at 0.25 μM (HCT-116 cell line; HCT-116, Table 2): 15%; CDK4 % Inhibition at 0.03 μM ([1]; 0.03 μM compound, Table 2): 7%
CN1CCN=C1c1ccc(S(=O)(=O)N2CCC(Nc3nc(N)c(C(=O)c4c(F)cccc4F)s3)CC2)cc1 [Example J1, 1-[4-Amino-2-{1-[4-(1-methyl-4,5-dihydro-1H-imidazol-2-yl)-benzenesulfonyl]-piperidin-4-ylamino}-thiazol-5-yl)-1-(2,6-difluoro-phenyl)-methanone] | – | – | – | – | < 1 | 1200 | 5000 | 0.63 | –
Nc1nc(NC2CCN(S(=O)(=O)CCSC3CCCC3)CC2)sc1C(=O)c1c(F)cccc1F [Example K38, {4-Amino-2-[1-(2-cyclopentylsulfanyl-ethanesulfonyl)-piperidin-4-ylamino]-thiazol-5-yl}-(2,6-difluoro-phenyl)-methanone Trifluoroacetic Acid Salt.] | – | – | – | – | 7.9 | 460 | 3000 | 6.4 | –
Nc1nc(NC2CCN(C(=O)N3CCCC3)CC2)sc1C(=O)c1c(F)cccc1F [Example R81] | −10 | 13 | 43 | 29 | – | – | – | – | –
Nc1nc(NC2CCN(C(=O)c3ccc(-c4ccccc4)cc3)CC2)sc1C(=O)c1c(F)cccc1F [Example R149] | 28 | 11 | 43 | 51 | – | – | – | – | –
CN1CCN(Cc2ccc(S(=O)(=O)N3CCC(Nc4nc(N)c(C(=O)c5c(F)cccc5F)s4)CC3)cc2)CC1 [Example J7] | – | – | – | – | 1.9 | 130 | 300 | 0.78 | –
CNc1ccc(C(=O)N2CCC(Nc3nc(N)c(C(=O)c4c(F)cccc4F)s3)CC2)cc1 [Example R147] | 63 | 0 | 41 | 78 | – | – | – | – | –
CC(C)OC(=O)N1CCC(Nc2nc(N)c(C(=O)c3c(F)cccc3F)s2)CC1 [Example R84] | 4 | 0 | 41 | 21 | – | – | – | – | –
